Measured values taken from US8933290B2, “Mesh implant” (Sofradim Production SAS, priority 2007, dated 2015).

Tested on: classical pathway of the complement system
Test: Anti-complement activity, CH50 hemolytic assay in total human serum
Assay type: biochemical
Conditions: in solution, sheep erythrocytes
Method: The anti-complement activity of fucans was tested via a CH50 test, a standard hemolytic assay in total human serum. Complement activation in human serum was induced by the introduction of sheep erythrocytes coated with rabbit antibodies and then recognized as foreign elements. […] The amount of released hemoglobin was then determined by an optical density (OD) measurement at about 414 nm. The human serum dilution was adjusted for a known amount of erythrocytes, in order to lyse about 50% of the red blood cells (CH50). In order to check the impact of the fucan on the complement activation in solution, the fucan was added with the sheep erythrocytes. […] Heparin (heparin […] 173 UI/mg, Choay-Sanofi) and fucan […] RED synthesized in the Laboratoire de Recherche sur les Macromolecules (LRM, CNRS UMR 7540, France) were also tested instead of fucan.

heparin [heparin H108]
IC50 (median inhibition concentration), anti-complement activity: about 30 μg/mL
